Tested on: A549 cells
Assay: Cell viability by MTT method in A549 cells
Format: cell-based
Set-up: concentration or dose not given beside the values
Details: 72 hours treatment

| SMILES | Cell Viability (% inhibition) (A549) [%] |
| --- | --- |
| N#Cc1ccc(S(=O)(=O)N[C@@H](Cc2c[nH]c3ccccc23)C(=O)Nc2ccc(N3CCOCC3)cc2)cc1 [Compound 135, (S)-2-(4-Cyanophenylsulfonamido)-3-(1H-indol-3-yl)-N-(4-morpholinophenyl)propanamide] | 55.02 ± 1.06 |
| COc1ccc(-c2csc(NC(=O)[C@H](Cc3c[nH]c4ccccc34)NC(=O)c3ccc(C)cc3)n2)cc1 [Compound 210, (S)—N-(3-(1H-indol-3-yl)-1-((4-(4-methoxyphenyl)thiazol-2-yl)amino)-1-oxopropan-2-yl)-4-methylbenzamide] | 40.83 ± 8.13 |
| CC(C)C[C@H](NS(=O)(=O)c1ccc(C(=O)O)cc1)C(=O)N1CCOCCOCCOCC1 [Compound 157, (S)-4-(N-(4-methyl-1-oxo-1-(1,4,7-trioxa-10-azacyclododecan-10-yl)pentan-2-yl)sulfamoyl)benzoic acid] | 64.40 ± 2.96 |
| O=C(Nc1ccc(N2CCOCC2)cc1)[C@H](Cc1c[nH]c2ccccc12)NS(=O)(=O)c1ccc(C(F)(F)F)nc1 [Compound 136, (S)-3-(1H-indol-3-yl)-N-(4-morpholinophenyl)-2-(6-(trifluoromethyl)pyridine-3-sulfonamido)propanamide] | 87.12 ± 2.3 |
| Cc1ccc(S(=O)(=O)N[C@@H](CCC(=O)Nc2ccc([N+](=O)[O-])cc2)C(=O)Nc2ccc(N3CCOCC3)cc2)cc1 [Compound 167, (S)-2-(4-Methylphenylsulfonamido)-N^1-(morpholinophenyl)-N^5-(4-nitrophenyl)pentanediamide] | 85.33 ± 1.28 |
| COc1ccc(-c2cc(NC(=O)[C@H](Cc3c[nH]c4ccccc34)NS(=O)(=O)c3ccc(C)cc3)on2)cc1 [Compound 126, (S)-3-(1H-indol-3-yl)-N-(3-(4-methoxyphenyl)isoxazol-5-yl)-2-(4-methylphenylsulfonamido)propanamide] | 85.53 ± 0.66 |
| Cc1ccc(S(=O)(=O)N[C@@H](Cc2c[nH]c3ccccc23)C(=O)Nc2nc(-c3ccc(C(=O)O)cc3)cs2)cc1 [Compound 228, (S)-4-(2-(3-(1H-indol-3-yl)-2-(4-methylphenylsulfonamido)propanamido)thiazol-4-yl)benzoic acid] | 48.75 ± 5.85 |
| C[C@]12C[C@@H]3C[C@](C)(C1)C[C@@](NC(=O)[C@H](Cc1c[nH]c4ccccc14)NS(=O)(=O)c1ccc(Br)cc1)(C3)C2 [Compound 214, (S)-2-(4-Bromophenylsulfonamido)-N-((1r,3R,5S,7S)-3,5-dimethyladamantan-1-yl)-3-(1H-indol-3-yl)propanamide] | 86.93 ± 0.26 |
| COc1ccc(-c2csc(NC(=O)[C@H](Cc3c[nH]c4ccccc34)NS(=O)(=O)c3ccc(C(F)(F)F)cc3)n2)cc1 [Compound 212, (S)-3-(1H-indol-3-yl)-N-(4-(4-methoxyphenyl)thiazol-2-yl)-2-(4-(trifluoromethyl)phenylsulfonamido)propanamide] | 84.25 ± 0.99 |
| CC(C)C[C@H](NS(=O)(=O)c1ccc(-c2ccccc2)cc1)C(=O)Nc1ccc(N2CCOCC2)cc1 [Compound 33, (S)-2-(biphenyl-4-ylsulfonamido)-4-methyl-N-(4-morpholinophenyl)pentanamide] | 26.48 ± 3.66 |
| Cc1ccc(S(=O)(=O)N[C@@H](C)C(=O)Nc2ccc(N3CCOCC3)cc2)cc1 [Compound 44, (S)-2-(4-methylphenylsulfonamido)-N-(4-morpholinophenyl)propanamide] | 14.05 ± 4.05 |
| Cc1ccc(S(=O)(=O)N[C@@H](Cc2c[nH]c3ccccc23)C(=O)Nc2nc(-c3ccc(C(F)(F)F)cc3)cs2)cc1 [Compound 208, (S)-3-(1H-indol-3-yl)-2-(4-methylphenylsulfonamido)-N-(4-(4-(trifluoromethyl)phenyl)thiazol-2-yl)propanamide] | 82.89 ± 1.06 |
| Cc1ccc(S(=O)(=O)N[C@@H](Cc2c[nH]c3ccccc23)C(=O)NCCCc2ccccc2)cc1 [Compound 206, (S)-3-(1H-indol-3-yl)-2-(4-methylphenylsulfonamido)-N-(3-phenylpropyl)propanamide] | 67.48 ± 2.35 |
| COc1ccc(-c2csc(NC(=O)[C@H](Cc3c[nH]c4ccccc34)NS(=O)(=O)c3ccc(Br)cc3)n2)cc1 [Compound 62, (S)-2-(4-Bromophenylsulfonamido)-3-(1H-indol-3-yl)-N-(4-(4-methoxyphenyl)thiazol-2-yl)propanamide] | 90.17 ± 0.96 |
| Cc1ccc(S(=O)(=O)N[C@@H](Cc2ccccc2)C(=O)Nc2ccc(N3CCOCC3)cc2)cc1 [Compound 48, (S)-2-(4-methylphenylsulfonamido)-N-(4-morpholinophenyl)-3-phenylpropanamide] | 45.68 ± 2.92 |
| COc1cc(OC)cc(C(=O)NCCCC[C@H](NS(=O)(=O)c2ccc(C)cc2)C(=O)Nc2ccc(N3CCOCC3)cc2)c1 [Compound 170, (S)-3,5-Dimethoxy-N-(5-(4-methylphenylsulfonamido)-6-(4-morpholinophenylamino)-6-oxohexyl)benzamide] | 31.41 ± 4.96 |
| COC[C@H](C)Oc1ccc(-c2csc(NC(=O)[C@H](CC(C)C)NS(=O)(=O)c3ccc(C)cc3)n2)cc1 [Compound 98, (S)—N-(4-(4((S)-1-methoxypropan-2-yloxy)phenyl)thiazol-2-yl)-4-methyl-2-(4-methylphenylsulfonamido)pentanamide] | 76.55 ± 1.52 |

| SMILES | Cell Viability (% inhibition) (A549) [%] |
| --- | --- |
| Cc1ccc(S(=O)(=O)N[C@@H](CCCCNC(=O)OCc2ccccc2)C(=O)Nc2ccc(N3CCOCC3)cc2)cc1 [Compound 168, (S)-Benzyl 5-(4-methylphenylsulfonamido)-6-(4-morpholinophenylamino)-6-oxohexylcarbamate] | 84.11 ± 1.25 |
| Cc1ccc(S(=O)(=O)N[C@H](C(=O)Nc2ccc(N3CCOCC3)cc2)C(C)C)cc1 [Compound 131, (S)-3-Methyl-2-(4-methylphenylsulfonamido)-N-(4-morpholinophenyl)butanamide] | 5.78 ± 7.70 |
| Cc1ccc(S(=O)(=O)N[C@@H](Cc2c[nH]c3ccccc23)C(=O)Nc2ccc(N3CCOCC3)nc2)cc1 [Compound 133, (S)-3-(1H-indol-3-yl)-2-(4-methylphenylsulfonamido)-N-(6-morpholinopyridin-3-yl)propanamide] | 6.18 ± 6.05 |
| O=C(Nc1ccccc1)N[C@@H](Cc1c[nH]c2ccccc12)C(=O)N1CCOCC1 [Compound 132, (S)-1-(3-(1H-indol-3-yl)-1-morpholino-1-oxopropan-2-yl)-3-phenylurea] | −11.18 ± 5.31 |
| CCCCCCCCCCCC(=O)NNC(=O)[C@H](Cc1c[nH]c2ccccc12)NS(=O)(=O)c1ccc(Br)cc1 [Compound 194, (S)-4-Bromo-N-(1-(2-dodecanoylhydrazinyl)-3-(1H-indol-3-yl)-1-oxopropan-2-yl)benzenesulfonamide] | 86.99 ± 0.6 |
| COc1ccc(CCNC(=O)[C@H](Cc2c[nH]c3ccccc23)NS(=O)(=O)c2ccc(C)cc2)cc1 [Compound 205, (S)-3-(1H-indol-3-yl)-N-(4-methoxyphenethyl)-2-(4-methylphenylsulfonamido)propanamide] | 65.64 ± 5.37 |
| Cc1ccc(S(=O)(=O)N[C@@H](CC(C)C)C(=O)Nc2nc(-c3ccc(N4CCOCC4)cc3)cs2)cc1 [Compound 99, (S)-4-Methyl-2-(4-methylphenylsulfonamido)-N-(4-(4-morpholinophenyl)thiazol-2-yl)pentanamide] | 73.11 ± 3.83 |
| Cc1ccc(S(=O)(=O)N[C@@H](CC(C)C)C(=O)Nc2ccc(N3CCOCC3)cc2)cc1 [Compound 11, (S)-4-methyl-2-(4-methylphenylsulfonamido)-N-(4-morpholinophenyl)pentanamide] | 23.76 |
| CSCC[C@H](NS(=O)(=O)c1ccc(C)cc1)C(=O)Nc1ccc(N2CCOCC2)cc1 [Compound 45, (S)-2-(4-methylphenylsulfonamido)-4-(methylthio)-N-(4-morpholinophenyl)butanamide] | 12.97 ± 1.24 |
| Cc1ccc(S(=O)(=O)N[C@@H](CCC(=O)N2CCOCC2)C(=O)Nc2ccc(N3CCOCC3)cc2)cc1 [Compound 173, (S)-2-(4-Methylphenylsulfonamido)-5-morpholino-N-(4-morpholinophenyl)-5-oxopentanamide] | 0.1 ± 5.51 |
| Cc1ccc(S(=O)(=O)N[C@@H](CC(=O)OCc2ccccc2)C(=O)Nc2ccc(N3CCOCC3)cc2)cc1 [Compound 142, (S)-Benzyl 3-(4-methylphenylsulfonamido)-4-(4-morpholinophenylamino)-4-oxobutanoate] | 15.9 ± 4.84 |
| O=C([C@H](Cc1c[nH]c2ccccc12)NS(=O)(=O)c1ccc(Br)cc1)n1ccc(-c2ccccc2)n1 [Compound 185, (S)—N-(3-(1H-indol-3-yl)-1-oxo-1-(3-phenyl-1H-pyrazol-1-yl)propan-2-yl)-4-bromobenzenesulfonamide] | 13.09 ± 18.13 |
| CC(C)C[C@H](NS(=O)(=O)c1ccc([N+](=O)[O-])cc1)C(=O)Nc1ccc(N2CCOCC2)cc1 [Compound 31, (S)-4-methyl-N-(4-morpholinophenyl)-2-(4-nitrophenylsulfonamido)pentanamide] | 33.24 ± 4.95 |
| Cc1ccc(S(=O)(=O)N[C@H](Cc2c[nH]c3ccccc23)C(=O)Nc2ccc(N3CCOCC3)cc2)cc1 [Compound 76, (R)-3-(1H-indol-3-yl)-2-(4-methylphenylsulfonamido)-N-(4-morpholinophenyl)propanamide] | 63.47 ± 0.82 |
| Cc1ccc(C(=O)N[C@@H](Cc2c[nH]c3ccccc23)C(=O)OCc2ccccc2)cc1 [Compound 216, (S)-Benzyl 3-(1H-indol-3-yl)-2-(4-methylbenzamido)propanoate] | 69.96 ± 2.46 |
| Cc1ccc(S(=O)(=O)N[C@@H](CCCCNC(=O)c2ccc(C(F)(F)F)cn2)C(=O)Nc2ccc(N3CCOCC3)cc2)cc1 [Compound 140, (S)—N-(5-(4-methylphenylsulfonamido)-6-(4-morpholinophenylamino)-6-oxohexyl)-5-(trifluoromethyl)picolinamide] | 86.68 ± 1.25 |
